Experiments:
B. subtilis 168 [1] = experiment: fitness (endpoint OD595 vs no drug) (fraction); higher = more growth
In short: (§1)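 With the first reading as background, OD595 was measured every 30 min for 14 h in 384-well plates kept at 37 °C and inoculated at OD595 0.01. TSB, LB Lennox or CY was the medium. Fitness is the optical density at the transition into stationary phase divided by the robust mean of no-drug control wells, with a cap of 1.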

S. pneumoniae D39V [2] = experiment: as above
In short: as §1

B. subtilis 168 [3] = experiment: Bliss interaction score (quartile over a dose matrix) (fitness difference); higher = more antagonism (negative = synergy)
In short: (§2)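 The Bliss score is observed minus expected fitness under the product model, reported as quartiles over technical, biological and donor/recipient replicates. Fitness is the OD595 at entry into stationary phase divided by the plate's robust no-drug mean and capped at 1. Single-drug fitness was inferred from combination data.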

S. aureus DSM 20231 = experiment: as above
In short: as §2

S. aureus Newman = experiment: as above
In short: as §2

S. pneumoniae D39V [4] = experiment: as above
In short: as §2
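Throughout, for Bliss interaction score (quartile over a dose matrix): first quartile when negative (synergy) and third quartile when positive (antagonism).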

C[C@H]1COc2c(N3CCN(C)CC3)c(F)cc3c(=O)c(C(=O)O)cn1c23 [Levofloxacin] + CN(C)c1cc(NC(=O)CNC(C)(C)C)c(O)c2c1C[C@H]1C[C@H]3[C@H](N(C)C)C(O)=C(C(N)=O)C(=O)[C@@]3(O)C(O)=C1C2=O [Tigecycline]
fitness, B. subtilis 168 [1], one replicate
Conditions	partner 0.039 µg/mL	partner 0.078 µg/mL	partner 0.125 µg/mL	partner 0.156 µg/mL	partner 0.25 µg/mL	partner 0.5 µg/mL
first compound 0.001 µg/mL	0.897	0.893	–	0.926	–	–
first compound 0.002 µg/mL	0.932	0.911	≥ 1	0.878	0.862	0.993
first compound 0.0039 µg/mL	0.847	0.855	0.985	0.971	0.955	0.887
first compound 0.0078 µg/mL	–	–	0.94	–	0.94	0.885

fitness
Conditions	first compound 0.0312 µg/mL	first compound 0.0625 µg/mL	first compound 0.125 µg/mL	first compound 0.1725 µg/mL	first compound 0.2 µg/mL	first compound 0.345 µg/mL	first compound 0.4 µg/mL	first compound 0.69 µg/mL	first compound 0.8 µg/mL
B. subtilis 168 [1], partner 0.039 µg/mL	0.0258	0.0305	0.0314	–	–	–	–	–	–
B. subtilis 168 [1], partner 0.078 µg/mL	0.0327	0.0457	0.0438	–	–	–	–	–	–
B. subtilis 168 [1], partner 0.156 µg/mL	0.0426	0.0476	0.0441	–	–	–	–	–	–
S. pneumoniae D39V [2], partner 0.65 µg/mL	–	–	–	0.96	0.853	0.88	0.712	0.456	0.301
S. pneumoniae D39V [2], partner 1.3 µg/mL	–	–	–	0.949	0.842	0.85	0.713	0.537	0.35
S. pneumoniae D39V [2], partner 2.6 µg/mL	–	–	–	0.926	0.81	0.835	0.705	0.544	0.321

Conditions	Bliss interaction score
B. subtilis 168 [3]	-0.0381
S. aureus DSM 20231	-0.101
S. aureus Newman	-0.045
S. pneumoniae D39V [4]	-0.132

C[C@H]1COc2c(N3CCN(C)CC3)c(F)cc3c(=O)c(C(=O)O)cn1c23 [Levofloxacin] + CN(N=O)C(=O)N[C@@H](C=O)[C@@H](O)[C@H](O)[C@H](O)CO [Streptozotocin]
fitness, one replicate
Conditions	first compound 0.001 µg/mL	first compound 0.002 µg/mL	first compound 0.0039 µg/mL	first compound 0.0312 µg/mL	first compound 0.0625 µg/mL	first compound 0.125 µg/mL	first compound 0.2 µg/mL	first compound 0.4 µg/mL	first compound 0.8 µg/mL
B. subtilis 168 [1], partner 0.15 µg/mL	0.98	0.923	0.934	0.0317	0.0292	0.0367	–	–	–
B. subtilis 168 [1], partner 0.3 µg/mL	0.96	0.948	0.886	0.0288	0.0412	0.0451	–	–	–
B. subtilis 168 [1], partner 0.6 µg/mL	≥ 1	≥ 1	0.979	0.025	0.0304	0.0177	–	–	–
S. pneumoniae D39V [2], partner 1.2 µg/mL	–	–	–	–	–	–	0.925	0.759	0.259
S. pneumoniae D39V [2], partner 2.4 µg/mL	–	–	–	–	–	–	0.909	0.802	0.302
S. pneumoniae D39V [2], partner 4.8 µg/mL	–	–	–	–	–	–	0.823	0.603	0.0669

fitness, S. pneumoniae D39V [2]
Conditions	first compound 0.1725 µg/mL	first compound 0.345 µg/mL	first compound 0.69 µg/mL
partner 1.2 µg/mL	0.938	0.816	0.362
partner 2.4 µg/mL	0.936	0.845	0.398
partner 4.8 µg/mL	0.952	0.841	0.44

Conditions	Bliss interaction score
B. subtilis 168 [3]	0.0603
S. aureus DSM 20231	-0.0228
S. aureus Newman	-0.102
S. pneumoniae D39V [4]	-0.0624

C[C@H]1COc2c(N3CCN(C)CC3)c(F)cc3c(=O)c(C(=O)O)cn1c23 [Levofloxacin] + CN[C@@H]1[C@H](O)[C@H](NC)[C@H]2O[C@@]3(O)C(=O)C[C@@H](C)O[C@H]3O[C@@H]2[C@H]1O [Spectinomycin]
fitness, one replicate
Conditions	first compound 0.001 µg/mL	first compound 0.002 µg/mL	first compound 0.0039 µg/mL	first compound 0.2 µg/mL	first compound 0.4 µg/mL	first compound 0.8 µg/mL
B. subtilis 168 [1], partner 2 µg/mL	0.986	0.966	0.988	–	–	–
B. subtilis 168 [1], partner 4 µg/mL	0.955	0.888	≥ 1	–	–	–
B. subtilis 168 [1], partner 8 µg/mL	0.99	0.912	≥ 1	–	–	–
S. pneumoniae D39V [2], partner 4 µg/mL	–	–	–	0.96	0.868	0.446
S. pneumoniae D39V [2], partner 8 µg/mL	–	–	–	0.9	0.804	0.508

fitness
Conditions	first compound 0.0312 µg/mL	first compound 0.0625 µg/mL	first compound 0.125 µg/mL	first compound 0.1725 µg/mL	first compound 0.345 µg/mL	first compound 0.69 µg/mL
B. subtilis 168 [1], partner 2 µg/mL	0.036	0.0431	0.0402	–	–	–
B. subtilis 168 [1], partner 4 µg/mL	0.0347	0.0352	0.0401	–	–	–
B. subtilis 168 [1], partner 8 µg/mL	0.0234	0.0342	0.0261	–	–	–
S. pneumoniae D39V [2], partner 4 µg/mL	–	–	–	0.875	0.808	0.41
S. pneumoniae D39V [2], partner 8 µg/mL	–	–	–	0.928	0.816	0.439
S. pneumoniae D39V [2], partner 16 µg/mL	–	–	–	0.835	0.737	0.396

Conditions	Bliss interaction score
B. subtilis 168 [3]	-0.0192
S. aureus DSM 20231	0.0353
S. aureus Newman	-0.0582
S. pneumoniae D39V [4]	-0.0643

C[C@H]1COc2c(N3CCN(C)CC3)c(F)cc3c(=O)c(C(=O)O)cn1c23 [Levofloxacin] + CN[C@@H]1[C@H](O[C@H]2[C@H](O[C@H]3[C@H](O)[C@@H](O)[C@H](N=C(N)N)[C@@H](O)[C@@H]3N=C(N)N)O[C@@H](C)[C@]2(O)C=O)O[C@@H](CO)[C@H](O)[C@H]1O [Streptomycin]
fitness, one replicate
Conditions	first compound 0.001 µg/mL	first compound 0.002 µg/mL	first compound 0.0039 µg/mL	first compound 0.2 µg/mL	first compound 0.4 µg/mL	first compound 0.8 µg/mL
B. subtilis 168 [1], partner 2 µg/mL	0.963	0.952	0.932	–	–	–
B. subtilis 168 [1], partner 4 µg/mL	≥ 1	0.737	0.832	–	–	–
B. subtilis 168 [1], partner 8 µg/mL	0.252	0.0282	0.047	–	–	–
S. pneumoniae D39V [2], partner 2 µg/mL	–	–	–	0.955	0.855	0.346
S. pneumoniae D39V [2], partner 16 µg/mL	–	–	–	0.718	0.602	0.208

fitness
Conditions	partner 2 µg/mL	partner 4 µg/mL	partner 8 µg/mL
B. subtilis 168 [1], first compound 0.0312 µg/mL	0.0408	0.0413	0.0242
B. subtilis 168 [1], first compound 0.0625 µg/mL	0.0475	0.0546	0.033
B. subtilis 168 [1], first compound 0.125 µg/mL	0.0446	0.0475	0.0333
S. pneumoniae D39V [2], first compound 0.1725 µg/mL	0.942	0.923	0.927
S. pneumoniae D39V [2], first compound 0.2 µg/mL	–	0.9	0.798
S. pneumoniae D39V [2], first compound 0.345 µg/mL	0.817	0.812	0.788
S. pneumoniae D39V [2], first compound 0.4 µg/mL	–	0.806	0.704
S. pneumoniae D39V [2], first compound 0.69 µg/mL	0.316	0.422	0.445
S. pneumoniae D39V [2], first compound 0.8 µg/mL	–	0.307	0.293

Conditions	Bliss interaction score
B. subtilis 168 [3]	0.0365
S. aureus DSM 20231	-0.0487
S. aureus Newman	0.0694
S. pneumoniae D39V [4]	-0.0992

Reference: the supplement of paper PMC10627819
